Tested on: Male NMRI (SPF) mice
Assay: Fe utilization in mouse model (low-iron diet, oral administration by stomach tube)
Format: in vivo
Conditions: for Utilization n 15 d: mice fed low-iron diet (approx. 5 ppm iron) approx. 3 weeks, 2 mg iron/kg body weight/day by stomach tube, days 1-5 and 8-12, utilization on day 15 calculated from hemoglobin increase and body weight increase; for iron utilization compared to the pyridine comparative compound: same mouse model, comparison in words with the comparative example
Description: The excellent Fe utilizations that can be accomplished through the Fe complexes according to the invention were measured by means of the following mouse model. Male NMRI (SPF) mice (approximately 3 weeks old) were fed a low-iron diet (approx. 5 ppm iron) for approximately 3 weeks. The iron complexes were then administered to them by means of a stomach tube (2 mg iron/kg body weight/day) for 2 times 5 days, with an interruption of 2 days (days 1-5 and 8-12). 6 mice were the control group (negative control) and were administered with water instead. Utilization on day 15 was calculated from the hemoglobin increase and the body weight increase in accordance with the formula [formula]

| Substance | Utilization n 15 d [abs. %] | iron utilization compared to the pyridine comparative compound |
| --- | --- | --- |
| Tris-(5-methylpyrazine-2-ol-1-oxide)iron(III)-complex [Example 5] | 37 | improved iron utilization |
| Tris-(pyrazine-2-ol 1-oxide)iron(III)-complex [Example 1] | 56 | significantly improved iron utilization |
| Tris-(3,6-dimethylpyrazine-2-ol-1-oxide)-iron(III)-complex [Example 10] | 58 | improved iron utilization |
| Tris-(3,5,6-trimethylpyrazine-2-ol-1-oxide)iron(III)-complex [Example 4] | 32 | improved iron utilization |
| Tris-(3-methylpyrazine-2-ol-1-oxide)iron(III)-complex [Example 3] | 77 | improved iron utilization |
| Tris-(5,6-dimethyl pyrazine-2-ol 1-oxide)iron(III)-complex [Example 2] | 61 | improved iron utilization |

From patent publication US9439910B2, “Fe(III)-pyrazine complex compounds for treatment and prophylaxis of iron-deficiency phenomena and iron-deficiency anaemia” (VIFOR (INTERNATIONAL) AG, priority 2012, dated 2016)
